Test results reported in patent publication US20250345321A1, “CATEQUENTINIB (ANLOTINIB) IN SEQUENTIAL COMBINATION WITH IMMUNOTHERAPY FOR USE IN THE TREATMENT OF CANCER” (ADVENCHEN PHARMACEUTICALS, LLC, priority 2019, published 2025).
Counter-ions that a name gives are not always drawn.

Tests used:
[1] = Phase 2a chemo combination trial: TEAEs and toxicity; format: in vivo, human
Method: (§1) Phase 1 was completed in Q1 2017 at one study site to determine the recommend phase 2 dose (RP2D). The RP2D was determined to be AL3818 dihydrochloride 8 mg orally once daily in 21-day cycles (14 days on treatment, 7 days off treatment) on Day 8 to Day 21 of the cycle with platinum-based chemotherapy on Day 1 of the cycle.
(§2) Phase 2a is currently ongoing at four study sites in the U.S. The first subject was enrolled in April 2017. As of December 2018, 48 subjects with recurrent or metastatic endometrial, ovarian, and cervical cancer have been enrolled. 24 subjects are still on treatment and 24 subjects have discontinued treatment. 21 endometrial cancer subjects have been enrolled, 9 subjects have discontinued treatment. 8 subjects discontinued due to disease progression, 1 subject discontinued due to toxicity. 12 subjects remain on treatment.

[2] = test system: ovarian cancer; test: Phase 2a efficacy of AL3818 with standard platinum-based chemotherapy, ovarian cancer patients; format: in vivo, human; set-up: key: stable disease (SD); partial response (PR); complete response (CR); details: single ovarian cancer subjects, 8 mg daily + chemotherapy, December 2018, PtR = platinum resistant
Method: as §1, §2

[3] = test system: recurrent or advanced endometrial, ovarian, and cervical cancer; test: Phase 1 efficacy of AL3818 with standard platinum-based chemotherapy (best response); format: in vivo, human; set-up: key to Best response: stable disease (SD); partial response (PR); complete response (CR)
Excerpt: Patients in this trial were females with recurrent or advanced endometrial, ovarian, and cervical cancer.
In this described study, all patients received at least one dose of AL3818 dihydrochloride orally. Aside of three patients were permanent discharged from this study due to severe adverse events (SAE), the other six patients' best response ranged from stable disease (SD) (⅙, 16.7%), partial response (PR) ( 4/6, 66.6%) to complete response (CR) (⅙, 16.7%).
1. The daily dosage of compound AL3818 was the initial dosage that administrated to the patients, which might subject to a dosage reduction if serious side-effects were observed.
2. The best response represented the most favorable outcome during the entire treatment, regardless of the possible disease progression (PD) after that.

[4] = test system: endometrial cancer; test: Phase 2a efficacy of AL3818 with standard platinum-based chemotherapy, endometrial cancer patients; format: in vivo, human; set-up: key to Best response: stable disease (SD); partial response (PR); complete response (CR)
Method: as §1, §2
Combining Phase 1 and Phase 2a subjects, 24 subjects with endometrial cancer have been enrolled in study AL3818-US-002. 19 subjects have had evaluable responses as of December 2018. There were eight subjects enrolled in Phase 2a of the study as first-line treatment.

[5] = Phase 1 chemo combination dosing de-escalation trial: safety, tolerability, DLT events
Excerpt: A Phase 1 trial was designed to determine the recommended phase 2 dose (RP2D) for part 2 (phase 2a) of the study.
In this presented chemo combination therapy regimen, in the first day of the 21-day cycle, standard platinum-based chemotherapeutic agents were administrated intravenously to the patients. […] 1-6 cycles of chemotherapy were applied for each individual patient.
After the intravenous (IV) chemotherapy on the Day 1, Day 2 to Day 7 was the therapy free period.
From Day 22 (C2D1) (CXDY is the abbreviation for Cycle X Day Y. For example, C2D1 represents Cycle 2 Day 1), a new cycle began, paclitaxel and carboplatin (or cisplatin for cervical cancer) were administrated to the patients and Day 23 to Day 28 (C2D2 • C2D7) was the therapy free period again.
The first 21-day cycle plus 7 days (C1D1-C2D8 or Day 1 to Day28) was crucial in this regimen and it was called the primary safety evaluation period. The recommended phase 2 dose (RP2D) was obtained by evaluating according to the standard for the dose limiting toxicity (DLT) events of patients in this period of time.
This evaluation period could be extended to the end of second cycle for the patients who passed the primary safety evaluation period.
In this embodiment, if any serious dose limiting toxicity (DLT) events or other serious side effects occurred, according to the serious level, the patients might require to withdraw the treatment, reduce the dose of medication or switch to other medications.

[6] = molecular target: VEGFR3 (Homo sapiens, UniProt P35916); details: cited from earlier work
[7] = test system: tumor; details: mouse model, disclosed in earlier filing; cited from earlier work
[8] = molecular target: PDGFR-a (Homo sapiens, UniProt P16234); details: cited from earlier work
[9] = molecular target: FGFR1 (Homo sapiens, UniProt P11362); details: cited from earlier work
[10] = molecular target: c-KIT (Homo sapiens, UniProt P10721); details: cited from earlier work
[11] = molecular target: VEGFR1 (Homo sapiens, UniProt P17948); details: cited from earlier work
[12] = AL3818 combination therapy with Nivolumab Phase I trial (DLT); format: in vivo, human; details: 10 mg oral Day 1-14 + Nivolumab 240 mg infusion Day 1 and Day 15 per 28 days; six sarcoma subjects
Excerpt: AL3818 and Nivolumab administrations are both started on Day 1.
Nivolumab is administrated via infusion on Day 1 and Day 15 for twice per 28 days, 21 days as one cycle will still be applied for the combination therapy. Nivolumab can be administrated via infusion on Day 1 once per 28 days, 21 days as one cycle will still be applied for the combination therapy. AL3818 is administrated orally from Day 1 to Day 14 and off from Day 15 to Day 21 for 21 days as one cycle. Nivolumab is administrated via infusion on Day 1 and Day 15 for twice per 28 days starting dose at 240 mg twice per 28 days. Nivolumab can be optionally administrated via infusion on Day 1 once per 28 days at 480 mg. AL3818 is administrated orally at Day 1-Day 14 at starting dose of 12 mg.
Treatments of subject 001 (liposarcoma), 002 (synovial sarcoma), 003 (angiosarcoma), 004 (leiomyosarcoma), 005 (undifferentiated pleomorphic sarcoma) and 006 (leiomyosarcoma) at 10 mg oral dosing Day 1-14 combing with Nivolumab at Day 1 and Day 15 for twice per 28 days starting dose at 240 mg infusion have been completed with one DLT (subject 002). Dose escalation to 12 mg combination therapies with Nivolumab with cervical cancer subject and other sarcoma subjects are ongoing.

[13] = molecular target: FGFR3 (Homo sapiens, UniProt P22607); details: cited from earlier work
[14] = molecular target: VEGFR2/KDR (Homo sapiens, UniProt P35968); details: cited from earlier work
[15] = molecular target: FGFR2 (Homo sapiens, UniProt P21802); details: cited from earlier work
[16] = 21 endometrial cancer subjects enrolled in Phase 2a, December 2018
[17] = single subject, ovarian cancer, daily dosage 8 mg + standard paclitaxel and carboplatin
[18] = single subjects, endometrial cancer, daily dosage 8 mg + standard paclitaxel and carboplatin
[19] = single subjects, ovarian cancer, initial daily dosage 12 mg + standard platinum-based chemotherapy
[20] = endometrial cancer, second- and further-line treatment, eleven subjects

Chain of VEGFR1 (P17948 27-1338): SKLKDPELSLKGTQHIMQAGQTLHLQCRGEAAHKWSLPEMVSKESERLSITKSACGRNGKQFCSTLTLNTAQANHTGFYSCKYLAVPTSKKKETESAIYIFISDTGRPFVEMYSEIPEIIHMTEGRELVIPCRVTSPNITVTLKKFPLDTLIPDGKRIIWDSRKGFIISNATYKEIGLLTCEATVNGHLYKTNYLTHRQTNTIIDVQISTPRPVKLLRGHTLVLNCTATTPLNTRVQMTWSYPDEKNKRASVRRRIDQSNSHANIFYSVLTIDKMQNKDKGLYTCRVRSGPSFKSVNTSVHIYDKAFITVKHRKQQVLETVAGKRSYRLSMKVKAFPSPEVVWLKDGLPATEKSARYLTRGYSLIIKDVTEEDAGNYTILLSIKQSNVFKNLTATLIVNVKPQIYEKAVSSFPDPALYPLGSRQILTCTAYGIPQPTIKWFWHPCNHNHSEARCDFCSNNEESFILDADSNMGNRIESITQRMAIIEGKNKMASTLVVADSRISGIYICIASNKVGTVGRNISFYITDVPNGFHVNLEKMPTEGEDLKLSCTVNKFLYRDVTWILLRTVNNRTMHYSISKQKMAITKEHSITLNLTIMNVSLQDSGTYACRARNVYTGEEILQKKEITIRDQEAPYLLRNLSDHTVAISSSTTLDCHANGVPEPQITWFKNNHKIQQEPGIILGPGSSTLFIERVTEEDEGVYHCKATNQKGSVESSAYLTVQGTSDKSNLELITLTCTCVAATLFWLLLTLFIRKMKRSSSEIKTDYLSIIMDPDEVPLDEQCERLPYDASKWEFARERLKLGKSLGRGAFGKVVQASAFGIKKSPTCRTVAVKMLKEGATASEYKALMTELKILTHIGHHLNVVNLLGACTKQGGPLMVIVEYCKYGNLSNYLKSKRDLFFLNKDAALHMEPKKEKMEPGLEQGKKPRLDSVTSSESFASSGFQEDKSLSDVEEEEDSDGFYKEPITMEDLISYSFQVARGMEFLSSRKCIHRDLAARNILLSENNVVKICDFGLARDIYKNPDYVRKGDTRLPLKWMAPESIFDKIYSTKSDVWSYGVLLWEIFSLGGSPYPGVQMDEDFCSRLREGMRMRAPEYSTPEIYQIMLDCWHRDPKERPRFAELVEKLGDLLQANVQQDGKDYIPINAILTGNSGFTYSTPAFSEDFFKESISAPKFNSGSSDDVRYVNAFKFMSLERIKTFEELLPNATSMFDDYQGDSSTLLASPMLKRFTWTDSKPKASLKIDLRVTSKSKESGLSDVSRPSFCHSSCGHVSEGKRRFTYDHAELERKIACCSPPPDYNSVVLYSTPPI
Chain of c-KIT (P10721 26-976): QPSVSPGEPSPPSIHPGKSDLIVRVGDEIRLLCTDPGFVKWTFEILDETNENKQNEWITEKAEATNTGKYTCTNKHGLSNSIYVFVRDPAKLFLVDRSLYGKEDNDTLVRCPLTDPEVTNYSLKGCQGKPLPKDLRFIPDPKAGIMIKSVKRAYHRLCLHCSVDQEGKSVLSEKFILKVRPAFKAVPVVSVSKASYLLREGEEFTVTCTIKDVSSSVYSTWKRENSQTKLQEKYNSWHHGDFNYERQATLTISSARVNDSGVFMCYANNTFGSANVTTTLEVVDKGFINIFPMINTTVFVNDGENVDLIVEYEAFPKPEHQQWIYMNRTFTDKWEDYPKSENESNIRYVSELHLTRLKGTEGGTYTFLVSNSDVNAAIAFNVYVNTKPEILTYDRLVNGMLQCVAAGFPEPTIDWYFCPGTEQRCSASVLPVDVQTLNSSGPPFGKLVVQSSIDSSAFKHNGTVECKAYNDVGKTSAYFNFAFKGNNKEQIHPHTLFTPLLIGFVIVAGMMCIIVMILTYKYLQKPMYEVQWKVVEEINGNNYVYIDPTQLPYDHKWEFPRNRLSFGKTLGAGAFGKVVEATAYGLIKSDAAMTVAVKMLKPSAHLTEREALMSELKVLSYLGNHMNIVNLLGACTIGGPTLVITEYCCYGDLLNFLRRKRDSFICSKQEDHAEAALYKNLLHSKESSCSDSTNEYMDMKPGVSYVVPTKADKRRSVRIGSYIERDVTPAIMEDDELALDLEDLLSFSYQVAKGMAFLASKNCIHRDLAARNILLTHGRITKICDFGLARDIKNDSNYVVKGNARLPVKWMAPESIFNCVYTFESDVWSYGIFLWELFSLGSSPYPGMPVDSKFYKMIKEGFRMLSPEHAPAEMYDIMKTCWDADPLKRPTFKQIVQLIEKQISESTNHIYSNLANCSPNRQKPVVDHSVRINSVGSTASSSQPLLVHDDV
Chain of VEGFR3 (P35916 25-1363): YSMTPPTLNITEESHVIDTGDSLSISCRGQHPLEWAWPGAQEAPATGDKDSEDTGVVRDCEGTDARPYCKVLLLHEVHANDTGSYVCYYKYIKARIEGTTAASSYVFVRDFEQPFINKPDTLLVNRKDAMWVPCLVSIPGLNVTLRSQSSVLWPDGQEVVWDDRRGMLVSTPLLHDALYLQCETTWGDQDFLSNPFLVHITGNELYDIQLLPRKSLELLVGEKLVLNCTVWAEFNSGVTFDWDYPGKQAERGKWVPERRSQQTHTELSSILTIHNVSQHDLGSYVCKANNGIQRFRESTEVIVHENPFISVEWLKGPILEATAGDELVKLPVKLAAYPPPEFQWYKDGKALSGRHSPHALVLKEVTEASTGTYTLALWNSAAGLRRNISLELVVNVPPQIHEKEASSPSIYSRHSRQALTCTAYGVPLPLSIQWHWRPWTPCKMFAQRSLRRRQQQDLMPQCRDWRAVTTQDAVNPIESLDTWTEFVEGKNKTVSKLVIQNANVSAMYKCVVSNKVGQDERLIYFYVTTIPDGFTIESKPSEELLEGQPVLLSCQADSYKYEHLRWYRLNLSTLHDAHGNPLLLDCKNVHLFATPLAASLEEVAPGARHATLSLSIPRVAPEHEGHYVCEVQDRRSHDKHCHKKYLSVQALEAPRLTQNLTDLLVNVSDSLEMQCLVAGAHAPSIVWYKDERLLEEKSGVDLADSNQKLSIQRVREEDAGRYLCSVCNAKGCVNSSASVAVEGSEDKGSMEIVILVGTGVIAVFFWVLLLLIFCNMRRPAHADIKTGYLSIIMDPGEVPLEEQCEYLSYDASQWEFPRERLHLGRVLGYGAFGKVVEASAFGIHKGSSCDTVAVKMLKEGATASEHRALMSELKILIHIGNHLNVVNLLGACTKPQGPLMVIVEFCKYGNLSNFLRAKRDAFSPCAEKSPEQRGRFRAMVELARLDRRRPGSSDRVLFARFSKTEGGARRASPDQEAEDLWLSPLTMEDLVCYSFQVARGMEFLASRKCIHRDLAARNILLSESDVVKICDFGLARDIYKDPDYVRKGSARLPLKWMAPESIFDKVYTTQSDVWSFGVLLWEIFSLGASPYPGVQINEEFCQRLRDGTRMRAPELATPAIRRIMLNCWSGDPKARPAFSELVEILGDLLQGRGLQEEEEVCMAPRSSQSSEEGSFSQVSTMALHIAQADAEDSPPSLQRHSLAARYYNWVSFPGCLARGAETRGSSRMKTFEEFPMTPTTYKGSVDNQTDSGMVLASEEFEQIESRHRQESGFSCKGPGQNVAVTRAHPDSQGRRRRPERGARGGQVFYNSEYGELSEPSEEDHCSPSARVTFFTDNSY
Chain of FGFR2 (P21802 22-821): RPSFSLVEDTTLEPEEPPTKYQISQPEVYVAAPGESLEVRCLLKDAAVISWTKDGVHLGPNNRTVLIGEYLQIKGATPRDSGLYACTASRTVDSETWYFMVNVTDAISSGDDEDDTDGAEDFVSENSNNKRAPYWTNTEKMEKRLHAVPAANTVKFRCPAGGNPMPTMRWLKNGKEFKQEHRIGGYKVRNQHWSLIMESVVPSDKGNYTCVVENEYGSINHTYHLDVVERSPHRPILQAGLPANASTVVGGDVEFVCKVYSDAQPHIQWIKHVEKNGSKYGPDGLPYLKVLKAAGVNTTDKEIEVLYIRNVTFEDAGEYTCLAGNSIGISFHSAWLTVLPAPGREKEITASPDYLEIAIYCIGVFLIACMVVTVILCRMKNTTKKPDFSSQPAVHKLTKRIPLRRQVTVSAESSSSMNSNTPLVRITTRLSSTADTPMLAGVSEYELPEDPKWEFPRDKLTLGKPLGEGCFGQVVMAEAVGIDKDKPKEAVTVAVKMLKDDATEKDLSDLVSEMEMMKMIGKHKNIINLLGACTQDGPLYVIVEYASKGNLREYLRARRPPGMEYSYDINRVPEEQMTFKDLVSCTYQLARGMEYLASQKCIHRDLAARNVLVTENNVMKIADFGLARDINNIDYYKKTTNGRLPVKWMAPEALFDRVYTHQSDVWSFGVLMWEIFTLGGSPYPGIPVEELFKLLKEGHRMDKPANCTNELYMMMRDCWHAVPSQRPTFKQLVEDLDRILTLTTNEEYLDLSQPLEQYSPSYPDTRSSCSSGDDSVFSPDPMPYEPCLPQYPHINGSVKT

In the case of COc1cc2c(Oc3ccc4[nH]c(C)cc4c3F)ccnc2cc1OCC1(N)CC1 [AL3818 dihydrochloride], the “subjects discontinued due to toxicity” value [1, 16] is reported as 1 subject, the TEAE abdominal pain ([1]; Phase 2a, % of all TEAEs) is reported as 4.20% and the TEAE alopecia ([1]; Phase 2a, % of all TEAEs) is reported as 1.3%. The TEAE anaemia ([1]; Phase 2a, % of all TEAEs) was 1.8%, the TEAE arthralgia ([1]; Phase 2a, % of all TEAEs) was 1.6% and the TEAE asthenia ([1]; Phase 2a, % of all TEAEs) was 2.2%. The TEAE back pain ([1]; Phase 2a, % of all TEAEs) was 1.5%, the TEAE constipation ([1]; Phase 2a, % of all TEAEs) was 2.7% and the TEAE decreased appetite ([1]; Phase 2a, % of all TEAEs) was 2.7%. It also gave a TEAE diarrhea ([1]; Phase 2a, % of all TEAEs) of 6.3%, a TEAE dyspnea ([1]; Phase 2a, % of all TEAEs) of 1% and a TEAE epistaxis ([1]; Phase 2a, % of all TEAEs) of 3%. For the same compound, the TEAE fatigue ([1]; Phase 2a, % of all TEAEs) was 4.5%, the TEAE flatulence ([1]; Phase 2a, % of all TEAEs) was 1.5% and the TEAE headache ([1]; Phase 2a, % of all TEAEs) was 3.2%. It also gave a TEAE hypertension ([1]; Phase 2a, % of all TEAEs) of 3.3%, a TEAE hypokalemia ([1]; Phase 2a, % of all TEAEs) of 1.3% and a TEAE hypomagnesaemia ([1]; Phase 2a, % of all TEAEs) of 1%. For the same compound, the TEAE insomnia ([1]; Phase 2a, % of all TEAEs) was 1.3%, the TEAE nausea ([1]; Phase 2a, % of all TEAEs) was 4.7% and the TEAE neuropathy peripheral ([1]; Phase 2a, % of all TEAEs) was 2%. The TEAE neutropenia ([1]; Phase 2a, % of all TEAEs) was 2%, the “TEAE neutrophil count decreased” value ([1]; Phase 2a, % of all TEAEs) was 1% and the “TEAE pain in extremity” value ([1]; Phase 2a, % of all TEAEs) was 1.7%. The TEAE pyrexia ([1]; Phase 2a, % of all TEAEs) was 1.2%, the TEAE thrombocytopenia ([1]; Phase 2a, % of all TEAEs) was 1.7% and the “TEAE urinary tract infection” value ([1]; Phase 2a, % of all TEAEs) was 1.3%. For the same compound, the TEAE vomiting ([1]; Phase 2a, % of all TEAEs) was 2.8%, the TEAE weight decreased ([1]; Phase 2a, % of all TEAEs) was 1% and the “Best Response (% reduction)” value [2] was “SD”. For the same compound, the “share of patients with best response complete response (CR)” value ([3]; Phase 1, six evaluable patients (1/6)) was 16.7%, the “share of patients with best response partial response (PR)” value ([3]; Phase 1, six evaluable patients (4/6)) was 66.6% and the Best response [3, 17] was “SD”. The Best response [3, 18] was “PR”, the Best response [3, 19] was “PR” and the “subjects discontinued due to disease progression” value [4, 16] was 8 subjects. For the same compound, the “partial responses (PR) as best responses” value ([4]; endometrial cancer, first-line treatment, eight subjects) was “five partial responses”, the “Objective response rate (ORR)” value ([4]; endometrial cancer, first-line treatment, eight subjects Phase 2a (5/8)) was 62.5% and the “disease control rate (DCR)” value ([4]; endometrial cancer, first-line treatment, eight subjects Phase 2a (6/8)) was 75%. For the same compound, the “complete response (CR) as best responses” value [4, 20] was “one complete response”, the “partial responses (PR) as best responses” value [4, 20] was “five partial responses” and the “disease control rate (DCR)” value ([4]; endometrial cancer, second- and further-line treatment, eleven subjects (9/11)) was 82%. The “Objective response rate (ORR)” value ([4]; endometrial cancer, second- and further-line treatment, eleven subjects Phase 1 and 2a (6/11)) was 54.5%, the “Best response” value ([4]; single endometrial cancer subjects, Phase 2a, 8 mg daily + paclitaxel/carboplatin, December 2018) was “CR and PR and SD” and the “dose limiting toxicity (DLT) events” value ([5]; 10 mg daily group, three patients, oral Day 8-21 of 21-day cycle + paclitaxel/carboplatin Day 1) was “one of the patients”. For the same compound, the “dose limiting toxicity (DLT) events during the primary safety evaluation period” value ([5]; 12 mg daily group, three patients, oral Day 8-21 of 21-day cycle + paclitaxel/carboplatin Day 1) was “two of the patients out of three”, the safe daily dosage ([5]; 21-day cycle (14 days on, 7 off) combined with paclitaxel and carboplatin (or cisplatin)) was 8 mg and the “recommended phase 2 dose (RP2D)” value ([5]; oral once daily Day 8-21 of 21-day cycle with platinum-based chemotherapy Day 1) was 8 mg.
In the case of COc1cc2c(Oc3ccc4[nH]c(C)cc4c3F)ccnc2cc1OCC1(N)CC1 [AL3818, (1-[[4-(4-fluoro-2-methyl-1H-indol-5-yloxy)-6-methoxyquinolin-7-yl]oxy]methyl]cyclopropaneamine], the “inhibition of VEGFR3 activity” value [6] is listed as “could inhibit”, the “anti-tumor effect of combination with chemotherapy agents” value [7] is listed as “synergistic anti-tumor effects” and the “inhibition of PDGFR-a” value [8] is listed as “strong inhibitor”. For the same compound, the “inhibition of FGFR1” value [9] was “strong inhibitor”, the “inhibition of c-KIT” value [10] was “strong inhibitor” and the “inhibition of VEGFR1 activity” value [11] was “could inhibit”. For the same compound, the DLT [12] was “one DLT”, the Best response ([3]; single subject, cervical cancer, initial daily dosage 12 mg + standard platinum-based chemotherapy) was “NE/SAE” and the Best response ([3]; single subject, endometrial cancer, initial daily dosage 10 mg + standard platinum-based chemotherapy) was “PR”. For the same compound, the Best response [3, 17] was “SD”, the Best response [3, 18] was “PR” and the Best response ([3]; single subjects, ovarian cancer, initial daily dosage 10 mg + standard platinum-based chemotherapy) was “CR and NE/SAE”. The Best response [3, 19] was “NE/SAE and PR”, the “inhibition of FGFR3” value [13] was “strong inhibitor” and the “inhibition of VEGFR2/KDR activity” value [14] was “could inhibit”. For the same compound, the “inhibition of FGFR2” value [15] was “strong inhibitor”, the “dose limiting toxicity (DLT) events” value ([5]; 8 mg daily group, three patients, oral Day 8-21 of 21-day cycle + paclitaxel/carboplatin Day 1) was “no patient” and the “tolerability of daily dosage of 12 mg” value ([5]; 12 mg daily together with platinum-based chemotherapy) was “too high”. The TEAE abdominal pain ([5]; Phase 1, nine subjects) was 2.88%, the TEAE alopecia ([5]; Phase 1, nine subjects) was 2.91% and the TEAE chest pain ([5]; Phase 1, nine subjects) was 1.92%. It also gave a TEAE dehydration ([5]; Phase 1, nine subjects) of 1.92%, a TEAE diarrhea ([5]; Phase 1, nine subjects) of 4.81% and a TEAE dizziness ([5]; Phase 1, nine subjects) of 2.88%. The TEAE fatigue ([5]; Phase 1, nine subjects) was 4.81%, the TEAE hypertension ([5]; Phase 1, nine subjects) was 2.88% and the TEAE nausea ([5]; Phase 1, nine subjects) was 9.62%. It also gave a TEAE pulmonary embolism ([5]; Phase 1, nine subjects) of 1.92%, a TEAE sore throat ([5]; Phase 1, nine subjects) of 1.92% and a TEAE thrombocytopenia ([5]; Phase 1, nine subjects) of 1.94%. The “TEAE urinary tract infection” value ([5]; Phase 1, nine subjects) was 2.88%, the TEAE vomiting ([5]; Phase 1, nine subjects) was 5.77% and the TEAE weakness generalized ([5]; Phase 1, nine subjects) was 2.88%. For the same compound, the “subjects reporting treatment emergent adverse events (TEAE)” value ([5]; Phase 1, nine subjects (9/9)) was 100%.
